The values that follow come from US7947270B2, “Removing dental plaque with krill enzymes” (Arcimboldo AB, priority 1992, dated 2011).

For orientation: Km means the concentration of substrate that gives half-maximal velocity.

Where a SMILES comes first, the peptide text is derived from it.

Data set [1] relates to krill-derived multifunctional hydrolase. The data set can be described thus: protease inhibitors at pH 9.5 against hydrolase preparations. Type of data set: biochemical, antarctic krill. How it is done: The effectiveness of three protease inhibitors was tested at pH 9.5 against the three hydrolase preparations.
In data set [2] the test system is mice with P388 murine leukemia. In words: Toxicity on mice with s.c. implanted P388 murine leukemia. As to conditions: all mice in doxorubicin group except those receiving the lowest dosage. Type of data set: in vivo.
For data set [3], the system named is mice with s.c. implanted P388 murine leukemia. The data set can be described thus: toxicity on mice with P388 murine leukemia.
Data set [4] has as its system krill-derived multifunctional hydrolase (Prep-8). In words: protease inhibitors against Prep-8 at pH 7.5. Type of data set: biochemical, antarctic krill. The protocol:
The effectiveness of other protease inhibitors against Prep-8 was tested in a 0.1 M Tris-HCl buffer pH 7.5. Benzoyl-val-gly-arg-p-nitroanilide (“ARG-p-NA”) and succinyl-ala-pro-phe-p-nitroanilide (Phe-pNA) were used as substrates.

The subject of data set [5] is krill-derived multifunctional hydrolase (antarctic krill), Prep-11 (eluted at pH 11), SEQ ID NO. 1 (N-terminal sequence). In words: Km determination, krill-derived multifunctional hydrolase Prep-11. In kind it is biochemical. As to conditions: 0.1 M CAPS buffer, 2 mM Ca++, pH 9.5. The protocol: (§1) The krill-derived multifunctional hydrolase was purified by the protocol described above in Example 1C. Three preparations the krill-derived multifunctional hydrolase were prepared. The three preparations differed only in that the krill multifunctional hydrolase was eluted from the trypsin inhibitor gel with buffer at pH 3, pH 8, and pH 11, respectively. These preparations shall be termed “Prep-3,” “Prep-8,” and “Prep-11.” These preparations were dissolved in water to a concentration of 6 mg/ml.
(§2) The SDS bands were electroblotted onto PVDF membranes and sequenced through 25 cycles of Edman degradation. See, Matsudaira, J. Biol. Chem., 262: 10035-10038, 1987. […] Accordingly, it is clear that all three preparations are homogenous, although each is micro-heterogeneous at position 5. The proteolytic activity of each of the three preparations was tested against substrate benzoyl-val-gly-arg-p-nitroaniline. Hydrolysis of this substrate can be monitored at […], reflecting the release of p-nitroaniline. The profile for Prep-3 (shown with filled squares), Prep-8 (shown with open diamonds) and Prep-11 (shown with filled diamonds) are identical.

Data set [6] concerns krill-derived multifunctional hydrolase (antarctic krill), Prep-8 (eluted at pH 8), SEQ ID NO. 1 (N-terminal sequence). The data set can be described thus: Km determination, krill-derived multifunctional hydrolase Prep-8. Type of data set: biochemical. The following applies: 0.1 M CAPS buffer, 2 mM Ca++, pH 9.5. The protocol: as §1, §2
Data set [7] has as its system krill-derived multifunctional hydrolase (antarctic krill), Prep-3 (eluted at pH 3), SEQ ID NO. 1 (N-terminal sequence). The data set can be described thus: Km determination, krill-derived multifunctional hydrolase Prep-3. Type of data set: biochemical. The following applies: 0.1 M CAPS buffer, 2 mM Ca++, pH 9.5. How it is done:
as §1, §2

Data set [8] has as its target krill-derived multifunctional hydrolase (antarctic krill). In words: cell-based or functional assay.
The next data set relates to HL60 cells. The data set can be described thus: in vitro binding of HL60 cells to endothelial cells. In kind it is cell-based, human. The protocol:
Endothelial cells were first passaged onto 96 well plates at a given concentration. The endothelial cells used in the experiment are described in Edgell et al., Proc. Natl. Acad. Sci. USA (1983) 80:3734. The cells were incubated at 37° C. under a DMEM cell culture medium containing 10% fetal calf serum and under a 5% CO2 atmosphere. Then, the medium was removed and replaced with 100 μl of a suspension of 200,000 HL60 cells (a […], available from the European Cell Culture Bank under ECACC Accession No. 85011431) in RPMI medium containing 10% fetal calf serum. The cells were incubated for 30 minutes. After this, the medium was removed and the adherent cells were washed two times with DMEM medium. The relative adherence of the HL60 cells was measured by measuring the difference in optical density at 450 nm between the plates on which the cells were co-incubated and plates having endothelial cells alone.
The effect of TNFα was measured by adding TNFα at 1500 units/ml to the endothelial cells 4 hours before the incubation with HL60 cells. The effect of antibody to E-selectin was measured by adding 25 μg/ml of monoclonal antibody BBAZ (R&D Systems Europe, Oxford, England) to the HL60 cells. The results of the experiments were: […]
The number of HL60 cells was determined by subtracting the cell numbers for control plates having only endothelial cells. […]

Setting [9] is: Prep-11, pH 9.5, inhibitor 1 μM.
Where [10] appears, read: substrate Arg-pNA, inhibitor 10 μM, pH 7.5.
The mark [11] stands for this setting: substrate Phe-pNA, inhibitor 10 μM, 0.1 M Tris-HCl pH 7.5.
The mark [12] stands for this setting: substrate Arg-pNA, inhibitor 0.2 μM, pH 7.5.
The mark [13] stands for this setting: substrate Phe-pNA, inhibitor 0.2 μM, pH 7.5.

krill-derived multifunctional hydrolase (antarctic krill), sequence (P86599 1-25): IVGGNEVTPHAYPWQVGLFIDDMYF

For `CC(C)C[C@H](NC(=O)[C@@H](NC(=O)N[C@@H](Cc1ccccc1)C(=O)O)[C@@H]1CCN=C(N)N1)C(=O)N[C@H](C=O)Cc1ccccc1` [Chymostatin], the “% activity remaining” value was 0% in data set [1] (Prep-3, pH 9.5, inhibitor 1 μM); 0% in data set [1] (Prep-8, pH 9.5, inhibitor 1 μM); 0% in data set [1] (setting [9]).
As for `COc1cccc2c1C(=O)c1c(O)c3c(c(O)c1C2=O)C[C@@](O)(C(=O)CO)C[C@@H]3O[C@H]1C[C@H](N)[C@H](O)[C@H](C)O1` [DOX, doxorubicin], in data set [2], the “weight loss and death of mice” value was “lost weight and died”. Further, the Toxic death in [3] (2.5 mg/kg i.p. daily, 9 consecutive days) is 6/6. Moreover, the “death and weight loss (summary)” value in [3] (all doses) was “all mice in the doxorubicin group, except for those receiving the lowest dosage, lost weight and died”.
Consider `CC(C)C[C@H](NC(=O)N[C@H](C(=O)N[C@@H](CCC(N)=O)C(=O)N[C@@H](C)C=O)[C@@H]1CCNC(=N)N1)C(=O)O` [Elastatinal], for which the “Activity remaining, %” value in data set [4] (setting [10]) and in data set [4] (setting [11]) was 100% in each case.
Take `CC(C)C[C@H](NP(=O)(O)O[C@@H]1O[C@@H](C)[C@H](O)[C@@H](O)[C@H]1O)C(=O)N[C@@H](Cc1c[nH]c2ccccc12)C(=O)O` [Phosphoramidon]: the figures for the “Activity remaining, %” value in data set [4] (setting [10]) and in [4] (setting [11]) were 87% and 94%, respectively.
With `CC(C)[C@H](NC(=O)c1ccccc1)C(=O)NCC(=O)N[C@@H](CCCNC(=N)N)C(=O)Nc1ccc([N+](=O)[O-])cc1` [benzoyl-pal-gly-arg-p-nitroanilide] (HELM PEPTIDE1{[O=C(c1ccccc1)[*:2]].V.G.R.[O=[N+]([O-])c1ccc(N[*:1])cc1]}$$$$V2.0), the Km in data set [5] worked out at 230 ± 13 µM; in [6], 210 ± 8 µM; in data set [7], 210 ± 8 µM.
Consider `C[C@H](NC(=O)CCC(=O)O)C(=O)N[C@@H](C)C(=O)N1CCC[C@H]1C(=O)N[C@@H](Cc1ccccc1)C(=O)Nc1ccc([N+](=O)[O-])cc1` [succinyl-ala-ala-pro-phe-p-nitroanilide] (HELM PEPTIDE1{[O=C(O)CCC(=O)[*:2]].A.A.P.F.[O=[N+]([O-])c1ccc(N[*:1])cc1]}$$$$V2.0), for which the values for the Km in [5], in data set [6] and in [7] were 270 ± 40 µM, 270 ± 50 µM and 260 ± 50 µM, respectively.
Consider Anti-Thrombin III [listing 1 of 2 here], for which the “Activity remaining, %” value in data set [4] (setting [12]) is 4%; in data set [4] (setting [13]), 2%.
With Anti-Thrombin III [listing 2 of 2 here], in [8], the Activity remaining, % of Prep-8 with 0.2 µM inhibitor, substrate Arg-pNA, pH 7.5 (% activity remaining) came to 4 and the Activity remaining, % of Prep-8 with 0.2 µM inhibitor, substrate Phe-pNA, pH 7.5 (% activity remaining) amounted to 2.
With Bovine pancreatic trypsin inhibitor, the “% activity remaining” value in data set [1] (Prep-3, pH 9.5, inhibitor 1 μM) is 2%; in data set [1] (Prep-8, pH 9.5, inhibitor 1 μM), 1%; in data set [1] (setting [9]), 1%.
The molecule Eglin C fragment (peptide) registered an Activity remaining, % of Prep-8 with 8.4 µM inhibitor, substrate Phe-pNA, pH 7.5 (% activity remaining) in data set [8] of 100.
In the case of TNFα, the HL60 cell number with HL60 cells (Expt 2: endothelial cells pretreated with TNFα) is recorded as 43,990. The “Absorbance (increase over endothelial cells alone)” value with HL60 cells (Expt 2: endothelial cells pretreated with TNFα 1500 units/ml 4 hours) is 0.444.
Regarding α-proteinase inhibitor, in data set [8], the Activity remaining, % of Prep-8 with 0.2 µM inhibitor, substrate Arg-pNA, pH 7.5 (% activity remaining) is 0 and the Activity remaining, % of Prep-8 with 0.2 µM inhibitor, substrate Phe-pNA, pH 7.5 (% activity remaining) is 0.
On to “α-proteinase inhibitor: protease inhibitor”, for which the “Activity remaining, %” value in data set [4] (setting [12]) and in data set [4] (setting [13]) was 0% in each case.

B1: α-anti-chymotrypsin (protein, UniProt P01011 24-423, looked up, species assumed)
Alpha-1-antichymotrypsin: HPNSPLDEENLTQENQDRGTHVDLGLASANVDFAFSLYKQLVLKAPDKNVIFSPLSISTALAFLSLGAHNTTLTEILKGLKFNLTETSEAEIHQSFQHLLRTLNQSSDELQLSMGNAMFVKEQLSLLDRFTEDAKRLYGSEAFATDFQDSAAAKKLINDYVKNGTRGKITDLIKDLDSQTMMVLVNYIFFKAKWEMPFDPQDTHQSRFYLSKKKWVMVPMMSLHHLTIPYFRDEELSCTVVELKYTGNASALFILPDQDKMEEVEAMLLPETLKRWRDSLEFREIGELYLPKFSISRDYNLNDILLQLGIEEAFTSKADLSGITGARNLAVSQVVHKAVLDVFEEGTEASAATAVKITLLSALVETRTIVRFNRPFLMIIVPTDTQNIFFMSKVTNPKQA
As to B1, the “Activity remaining, %” value in [4] (setting [12]) came out at 7%. Moreover, the “Activity remaining, %” value in [4] (setting [13]) is recorded as 1%. In data set [8], this molecule gave an Activity remaining, % of Prep-8 with 0.2 µM inhibitor, substrate Arg-pNA, pH 7.5 (% activity remaining) of 7 and an Activity remaining, % of Prep-8 with 0.2 µM inhibitor, substrate Phe-pNA, pH 7.5 (% activity remaining) of 1.
